Tests used:
[1] = test system: cullin-NEDD8 complexes in PBMC; assay: Cullin-NEDD8 protein in PBMC by ELISA; type: in vivo, human
Protocol: (§1) Assessment of pharmacodynamics included evaluation of cullin-NEDD8, p27^Kip1 protein expression, and cytokines in peripheral blood samples. Expression of cullin-NEDD8 protein in peripheral blood mononuclear cells (PBMC) was analyzed using an enzyme-linked immunosorbent assay (ELISA). For the weekly dosing cohorts, changes from baseline in cullin-NEDD8 complexes in the PBMC on Day 1 and Day 2 of Cycle 1 as measured by ELISA were evaluated. For the weekly dosing with lead-in period cohorts, changes from baseline in cullin-NEDD8 complexes on Day 2 were evaluated. Expression of p27^Kip1 protein (cyclin-dependent kinase inhibitor 1B), a substrate of CRL, was determined by immunohistochemistry (IHC). p27^Kip1 IHC was performed on biopsy tumor specimens collected at baseline and Day 2 of Cycle 1, and their staining intensities were assessed using H-Scoring, with the scores compared between baseline and Day 2 of Cycle 1. […]

[2] = test system: nuclear factor κB (NFκB) activation; design: method as in PMID 31583781; conditions: multiple myeloma models; cited from earlier work
[3] = design: method as in unpublished data; conditions: TAS4464 combined with TNF-α; ref unpublished data; cited from earlier work
[4] = Plasma pharmacokinetics of TAS4464 in patients; type: in vivo, human
Protocol: The PK endpoints included maximum plasma concentration (Cmax), area under the concentration–time curve from time zero up to the last observable concentration (AUC0-last) and plasma accumulation of TAS4464 after multiple doses. PK parameters were evaluated on Day 1 of Cycle 1 and Day 15 of Cycle 1 in the weekly dosing cohort, as well as on Day 1 of the lead-in period and Day 1 of Cycle 1 in the weekly with lead-in dosing cohort. The evaluation of the relationship between solute carrier organic anion transporter family member 1B1 (SLCO1B1) genetic polymorphisms and PK (i.e., the mean and individual clearance [CL] and volume of distribution at steady-state [Vdss] by each OATP1B1 phenotype) was assessed as the PGx analysis endpoint.
The analysis populations included in the study are summarized in the Supplementary Appendix. DLTs were recorded by incidence and 95% confidence intervals (CI). Median PFS and 95% CIs were calculated using Kaplan–Meier methodology. Best overall response was tabulated, and the ORR and DCR with 95% CIs were calculated by dose level. PK parameters were evaluated using non-compartmental methods. For the pharmacodynamic parameter of cullin-NEDD8 in PBMC, summary statistics and a scatter plot of the percentage change from baseline were produced. Missing data were not imputed. […] SAS software v9.4 (SAS Institute Inc., Cary NC, USA) was used for all statistical processing.

[5] = test system: 10 cytokines in peripheral blood; assay: Cytokines in peripheral blood (Luminex); type: in vivo, human
Protocol: as §1

[6] = test system: p27^Kip1 protein expression; assay: p27^Kip1 immunohistochemistry in biopsy tumor specimens; type: in vivo, human; conditions: Day 2 of Cycle 1, three patients; data not shown
Protocol: as §1

[7] = test system: hematologic and solid tumor xenograft models; conditions: cited from earlier work
[8] = plasma, multiple doses, data not shown

CCOc1cccc(F)c1C#Cc1cn([C@@H]2O[C@H](CNS(N)(=O)=O)[C@@H](O)[C@H]2O)c2ncnc(N)c12 [TAS4464]
cullin-NEDD8 complex measurements in PBMC versus baseline ([1]; Day 1 of Cycle 1, no dose-dependency): lower than those at baseline in all patients
cullin-NEDD8 complex measurements in PBMC versus baseline ([1]; Day 2 of Cycle 1, dose dependency not observed): lower than those at baseline, with the exception of two patients
mechanism of antitumor activity [2]: inhibition of nuclear factor κB (NFκB) activation
abnormal liver function tests [3]: Abnormal liver function tests were also observed
dose dependence of Cmax and AUC ([4]; dose range of 10–56 mg/m^2): generally increased with increasing dose
accumulation ratio of AUC0-last [R (AUC0-last)] [4, 8]: ~1.0
accumulation ratio of Cmax [R (Cmax)] [4, 8]: ~1.0
expression levels of the 10 cytokines in peripheral blood ([5]; five patients, weekly dosing with lead-in period cohort): no changes in the expression levels
peak expression of IL-1β, IFNγ, IL-12p40, IL-12p70, IL-17A, IL-1α and IL-2 versus baseline ([5]; one patient, weekly dosing with lead-in level 3, Day 3 of Cycle 1): more than four times higher than at baseline
expression of p27^Kip1 in tumor specimens versus baseline [6]: almost unchanged or decreased
antitumor effects ([7]; several hematologic and solid tumor xenograft models): promising antitumor effects
weight loss ([7]; xenograft models): without notable weight loss

Reference: paper PMC8279981, “A first-in-human, phase 1 study of the NEDD8 activating enzyme E1 inhibitor TAS4464 in patients with advanced solid tumors” (Investigational New Drugs, 2021)
